Test results published in PubChem BioAssay AID1083 (University of Pittsburgh Molecular Library Screening Center, 2008).
Where “and” joins values, the source holds several entries; their conditions need not be identical. Equal values may be shown once. Calls of active or inactive are those of the source. The rule behind the calls is not given here.

Biological target: Serine/threonine-protein kinase PLK1 (Homo sapiens) (UniProt P53350)
Test: PLK1 polo-box domain peptide-binding inhibitors, SAR follow-up, biochemical, fluorescence polarization, purchased analogs, concentration response (AID 1083)
Settings: Plk1 PBD peptide binding

Chain of Serine/threonine-protein kinase PLK1 (Homo sapiens) (P53350 whole entry, looked up, the tested form may be a part): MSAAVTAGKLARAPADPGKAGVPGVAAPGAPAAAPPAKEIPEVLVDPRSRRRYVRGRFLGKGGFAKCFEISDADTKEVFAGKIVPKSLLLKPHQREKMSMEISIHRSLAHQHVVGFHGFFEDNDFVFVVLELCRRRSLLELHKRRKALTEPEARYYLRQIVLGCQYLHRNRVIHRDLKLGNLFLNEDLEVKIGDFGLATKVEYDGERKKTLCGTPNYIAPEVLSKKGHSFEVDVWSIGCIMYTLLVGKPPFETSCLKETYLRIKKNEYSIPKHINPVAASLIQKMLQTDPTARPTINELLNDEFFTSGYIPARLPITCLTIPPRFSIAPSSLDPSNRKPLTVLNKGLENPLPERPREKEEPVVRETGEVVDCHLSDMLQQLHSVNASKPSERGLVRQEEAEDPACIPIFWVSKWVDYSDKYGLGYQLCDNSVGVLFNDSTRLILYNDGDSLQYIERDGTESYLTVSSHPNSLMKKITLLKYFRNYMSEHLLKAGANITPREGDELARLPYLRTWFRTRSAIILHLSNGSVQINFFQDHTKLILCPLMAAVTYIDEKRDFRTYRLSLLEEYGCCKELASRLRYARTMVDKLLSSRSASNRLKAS

Compound	IC50
Cc1cc(-n2c(C)cc(C=C3C(=O)NC(=O)NC3=O)c2C)ccc1I	45.2 µM
CCn1nc(-c2ccccc2Cl)nc2c(=O)n(C)c(=O)nc1-2	1.55 µM
CCCOC(=O)c1ccc(NC(=O)c2ccc(C)c(I)c2)cc1	> 50 µM (inactive)
CCOC(=O)c1ccc(NC(=O)c2ccc(Cl)c(Cl)c2)cc1	> 50 µM (inactive)
CC(=O)N(CN1C(=O)c2ccccc2C1=O)c1cc(Br)ccc1C	> 50 µM (inactive)
O=C1NC(=O)C(=Cc2cccn2-c2ccc([N+](=O)[O-])cc2)C(=O)N1	> 50 µM (inactive)
CCN(CC)CCOC(=O)c1ccc(N=Cc2c(O)n(C)c(=O)[nH]c2=O)cc1	> 50 µM (inactive)
COc1ccc(N(CN2C(=O)c3ccccc3C2=O)C(=O)C(F)(F)F)cc1	> 50 µM (inactive)
CCOC(=O)c1ccc(NC(=O)c2ccc(NC(=O)CC)cc2)cc1	> 50 µM (inactive)
CCOc1cc(-c2nnc3[nH]c(=O)n(C)c(=O)c3n2)ccc1OC(C)C	28.9 µM
CCOC(=O)c1ccc(N=Cc2c(O)n(-c3cccc(OC)c3)c(=O)[nH]c2=O)cc1	> 50 µM (inactive)
CCOC(=O)c1ccc(NC(=O)C2C3C=CC(C3)C2(C)C(=O)O)cc1 (centres undefined)	> 50 µM (inactive)
CC(=O)N(CN1C(=O)c2ccc([N+](=O)[O-])cc2C1=O)c1ccc(Oc2ccccc2)cc1	> 50 µM (inactive)
COc1ccccc1N(CN1C(=O)c2ccccc2C1=O)C(C)=O	> 50 µM (inactive)
COc1ccc(N(CN2C(=O)c3cc(Cl)c(Cl)cc3C2=O)C(C)=O)cc1	> 50 µM (inactive)
Cc1ccc(-c2nnc3[nH]c(=O)n(C)c(=O)c3n2)cc1	> 50 µM (inactive)
O=C1NC(=O)C(=Cc2cc(Cl)c(OCc3ccc(C(=O)O)cc3)c(Cl)c2)C(=O)N1	> 50 µM (inactive)
Cn1c(=O)[nH]c2nnc(-c3ccc(Cl)cc3)nc2c1=O	> 50 µM (inactive)
CC(=O)N(/N=C1\Sc2ccccc2C1=O)c1ccccc1Cl	> 50 µM (inactive)
Cn1c(=O)[nH]c2nnc(-c3ccccc3)nc2c1=O	> 50 µM (inactive)
CCOC(=O)c1ccc(NC(=O)C2CC(=O)NC(=NC)S2)cc1 (centres undefined)	> 50 µM (inactive)
O=C1NC(=O)C(=Cc2c3ccccc3cc3ccccc23)C(=O)N1	> 50 µM (inactive)
CC(OC(=O)c1ccc(NC(=O)c2ccc(Br)cc2)cc1)C(=O)c1ccccc1 (centres undefined)	> 50 µM (inactive)
CCn1nc(-c2ccccc2C)nc2c(=O)n(C)c(=O)nc1-2	0.636 µM and 5.67 µM
CCOC(=O)c1ccc(NC(=O)C2CCC(C)CC2)cc1 (centres undefined)	> 50 µM (inactive)

Compound	IC50
O=c1[nH]c2c(c(O)c1-c1ccccc1)c(=O)n(-c1ccccc1)c(=O)n2-c1ccccc1	> 50 µM (inactive)
CC(=O)N(/C=C1\Sc2ccccc2C1=O)c1ccc(C)cc1	> 50 µM (inactive)
CCOC(=O)c1ccc(NC(=O)c2ccc3snnc3c2)cc1	> 50 µM (inactive)
CC(=O)N(CN1C(=O)c2ccccc2C1=O)c1ccc(I)cc1	> 50 µM (inactive)
CC(=O)N(/N=C1\Sc2ccccc2C1=O)c1ccccc1[N+](=O)[O-]	18.7 µM
CCN(CC)CCOC(=O)c1ccc(N=Cc2c(O)[nH]c(=O)[nH]c2=O)cc1	> 50 µM (inactive)
Cc1ccccc1-c1nnc2[nH]c(=O)n(C)c(=O)c2n1	> 50 µM (inactive)
CC(=O)Oc1ccccc1N(/C=C1\Sc2ccccc2C1=O)C(C)=O	> 50 µM (inactive)
CCCOC(=O)c1ccc(NC(=O)c2ccc(OC)c([N+](=O)[O-])c2)cc1	> 50 µM (inactive)
CCOC(=O)c1ccc(NC(=O)c2cc3ccccc3c(=O)o2)cc1	> 50 µM (inactive)
CCn1c(N/C(O)=C/C(O)(C(F)(F)F)C(F)(F)F)nc2ccccc21	> 50 µM (inactive)
CCOC(=O)c1ccc(NC(=O)c2ccc3nc(N)sc3c2)cc1	> 50 µM (inactive)
CC(=O)N(/N=C1\Sc2ccccc2C1=O)c1cccc(C)c1	14 µM
CC(=O)N(CN1C(=O)c2ccccc2C1=O)c1ccc(C)c(Cl)c1	> 50 µM (inactive)
O=C1NC(=O)C(=Cc2ccccc2OCCOc2ccccc2)C(=O)N1	> 50 µM (inactive)
Cn1c(=O)[nH]c2nnc(-c3ccc(C(F)(F)F)cc3)nc2c1=O	> 50 µM (inactive)
COc1ccc(-c2nnc3[nH]c(=O)n(C)c(=O)c3n2)cc1	> 50 µM (inactive)
O=C(COC(=O)c1ccc(NC(=O)c2ccc(Cl)cc2)cc1)c1ccccc1	> 50 µM (inactive)
CCCC(=O)c1c(O)[nH]c(=O)[nH]c1=O	> 50 µM (inactive)
COC(=O)c1ccc(NC(=O)c2cc(-c3ccc(C)o3)nc3ccccc23)cc1	> 50 µM (inactive)
CC(=O)N(/C=C1\Sc2ccccc2C1=O)c1ccc(I)cc1	> 50 µM (inactive)
CCOC(=O)c1ccc(N=Cc2c(O)n(Cc3ccc4c(c3)OCO4)c(=O)[nH]c2=O)cc1	> 50 µM (inactive)
COc1cc(C=C2C(=O)NC(=O)NC2=O)ccc1OCc1c(C)no[n+]1[O-]	> 50 µM (inactive)
O=c1[nH]c(=O)c2nc(-c3ccc(Cl)cc3)cnc2[nH]1	> 50 µM (inactive)
